Experiments:
HLA-A*02:01 = HLA-A*02:01 (Homo sapiens, UniProt P04439, D140Y/D185E/D98H/E176V/E277Q/G131W/G231S/I119V/I121R/I166T/I218V/L300P/L318F/N151K/N90K/P208A/P217A/Q86G/Q94H/R138H/R169H/T345S); experiment: MHC binding assay: UV-ligand exchange, ELISA on beta2m of stabilized MHC complexes (peptide exchange yield); conditions: binding to HLA-A*02:01, UV-ligand exchange, β2m ELISA
Text: Candidate peptides for T cell based therapies according to the present invention were further tested for their MHC binding capacity (affinity). The individual peptide-MHC complexes were produced by UV-ligand exchange, where a UV-sensitive peptide is cleaved upon UV-irradiation, and exchanged with the peptide of interest as analyzed. Only peptide candidates that can effectively bind and stabilize the peptide-receptive MHC molecules prevent dissociation of the MHC complexes. To determine the yield of the exchange reaction, an ELISA was performed based on the detection of the light chain (β2m) of stabilized MHC complexes. The assay was performed as generally described in Rodenko et al. (Rodenko et al., 2006).
96 well MAXISorp plates (NUNC) were coated over night with 2 ug/ml streptavidin in PBS at room temperature, washed 4× and blocked for 1 h at 37° C. in 2% BSA containing blocking buffer. Refolded HLA-A*02:01/MLA-001 monomers served as standards, covering the range of 15-500 ng/ml. Peptide-MHC monomers of the UV-exchange reaction were diluted 100 fold in blocking buffer. Samples were incubated for 1 h at 37° C., washed four times, incubated with 2 ug/ml HRP conjugated anti-β2m for 1 h at 37° C., washed again and detected with TMB solution that is stopped with […]. Absorption was measured at 450 nm. Candidate peptides that show a high exchange yield (preferably higher than 50%, most preferred higher than 75%) are generally preferred for a generation and production of antibodies or fragments thereof, and/or T cell receptors or fragments thereof, as they show sufficient avidity to the MHC molecules and prevent dissociation of the MHC complexes.

CD8+ T cells = experiment: In vitro immunogenicity: in vitro T-cell priming with aAPCs loaded with peptide/MHC complexes and anti-CD28, pMHC multimer readout; assay type: cell-based, human; conditions: for Wells positive [%]: HLA-A*02 restricted peptides, percentage of positive wells among evaluable; for donors: percentage of positive donors
Text: In order to obtain information regarding the immunogenicity of the TUMAPs of the present invention, the inventors performed investigations using an in vitro T-cell priming assay based on repeated stimulations of CD8+ T cells with artificial antigen presenting cells (aAPCs) loaded with peptide/MHC complexes and anti-CD28 antibody.
In order to perform in vitro stimulations by artificial antigen presenting cells loaded with peptide-MHC complex (pMHC) and anti-CD28 antibody, the inventors first isolated CD8+ T cells from fresh HLA-A*02 leukapheresis products via positive selection using CD8 microbeads (Miltenyi Biotec, Bergisch-Gladbach, Germany) of healthy donors obtained from the University clinics Mannheim, Germany, after informed consent. PBMCs and isolated CD8+ lymphocytes were incubated in T-cell medium (TCM) until use consisting of RPMI-Glutamax (Invitrogen, Karlsruhe, Germany) supplemented with 10% heat inactivated human AB serum (PAN-Biotech, Aidenbach, Germany), 100 U/ml Penicillin/100 μg/ml Streptomycin (Cambrex, Cologne, Germany), 1 mM sodium pyruvate (CC Pro, Oberdorla, Germany), 20 μg/ml Gentamycin (Cambrex). 2.5 ng/ml IL-7 (PromoCell, Heidelberg, Germany) and 10 U/ml IL-2 (Novartis Pharma, Nürnberg, Germany) were also added to the TCM at this step. Generation of pMHC/anti-CD28 coated beads, T-cell stimulations and readout was performed in a highly defined in vitro system using four different pMHC molecules per stimulation condition and 8 different pMHC molecules per readout condition.
The purified co-stimulatory mouse IgG2a anti human CD28 Ab 9.3 (Jung et al., 1987) was chemically biotinylated using Sulfo-N-hydroxysuccinimidobiotin as recommended by the manufacturer (Perbio, Bonn, Germany). Beads used were 5.6 μm diameter streptavidin coated polystyrene particles (Bangs Laboratories, Illinois, USA).
pMHC used for positive and negative control stimulations were A*0201/MLA-001 (peptide […] (SEQ ID NO. 289) from modified Melan-A/MART-1) and A*0201/DDX5-001 ([…] from DDX5, SEQ ID NO. 290), respectively.
800.000 beads/200 μl were coated in 96-well plates in the presence of 4×12.5 ng different biotin-pMHC, washed and 600 ng biotin anti-CD28 were added subsequently in a volume of 200 μl. Stimulations were initiated in 96-well plates by co-incubating […] CD8+ T cells with 2×10^5 washed coated beads in 200 μl TCM supplemented with 5 ng/ml IL-12 (PromoCell) for 3 days at 37° C. Half of the medium was then exchanged by fresh TCM supplemented with 80 U/ml IL-2 and incubating was continued for 4 days at 37° C. This stimulation cycle was performed for a total of three times. For the pMHC multimer readout using 8 different pMHC molecules per condition, a two-dimensional combinatorial coding approach was used as previously described (Andersen et al., 2012) with minor modifications encompassing coupling to 5 different fluorochromes. Finally, multimeric analyses were performed by staining the cells with Live/dead near IR dye (Invitrogen, Karlsruhe, Germany), CD8-FITC antibody clone SK1 (BD, Heidelberg, Germany) and fluorescent pMHC multimers. For analysis, a BD LSRII SORP cytometer equipped with appropriate lasers and filters was used. Peptide specific cells were calculated as percentage of total CD8+ cells. Evaluation of multimeric analysis was done using the FlowJo software (Tree Star, Oreg., USA). In vitro priming of specific multimer+CD8+ lymphocytes was detected by comparing to negative control stimulations.
Exemplary flow cytometry results after TUMAP-specific multimer staining for 15 peptides of the invention are shown in FIGS. 3 and 6 together with corresponding negative controls.

[1] = CD8+ T cells of healthy HLA-A*02 donors, three stimulation cycles, multimer staining

Row | Substance | Wells positive [%] (CD8+ T cells) | other results
1 | 1 (KLQEKIQEL; listed as Homo sapiens) [compound 1] |  | Peptide exchange (MHC class I binding score, peptide exchange yield) (HLA-A*02:01): ++++ (>75% = ++++)
2 | 4 (VLFGELPAL; listed as Homo sapiens) [compound 4] | + (<20% = +) | 
3 | 6 (FLNAIETAL; listed as Homo sapiens) [compound 6] |  | Peptide exchange (MHC class I binding score, peptide exchange yield) (HLA-A*02:01): ++++ (>75% = ++++)
4 | 9 (SLITGQDLLSV; listed as Homo sapiens) [compound 9] | + (<20% = +) | 
5 | 14 (YTFSGDVQL; listed as Homo sapiens) [compound 14] | + (<20% = +) | 
6 | 17 (GLLPSAESIKL; listed as Homo sapiens) [compound 17] | + (<20% = +) | Peptide exchange (MHC class I binding score, peptide exchange yield) (HLA-A*02:01): ++++ (>75% = ++++)
7 | 27 (GLLGKVTSV; listed as Homo sapiens) [compound 27] | + (<20% = +) | 
8 | 29 (KMISAIPTL; listed as Homo sapiens) [compound 29] | + (<20% = +) | 
9 | 34 (TLNTLDINL; listed as Homo sapiens) [compound 34] | ++++ (>=70% = ++++) | 
10 | 35 (VIIKGLEEI; listed as Homo sapiens) [compound 35] | + (<20% = +) | 
11 | 39 (YLEDGFAYV; listed as Homo sapiens) [compound 39] | ++++ (>=70% = ++++) | 
12 | 50 (ILLSVLHQL; listed as Homo sapiens) [compound 50] | + (<20% = +) | 
13 | 66 (AMFPDTIPRV; listed as Homo sapiens) [compound 66] | + (<20% = +) | 
14 | 77 (ALYGNVQQV; listed as Homo sapiens) [compound 77] | + (<20% = +) | 
15 | 84 (FLLEREQLL; listed as Homo sapiens) [compound 84] |  | Peptide exchange (MHC class I binding score, peptide exchange yield) (HLA-A*02:01): ++++ (>75% = ++++)
16 | 89 (SLAETIFIV; listed as Homo sapiens) [compound 89] | + (<20% = +) | 
17 | 92 (RLFEEVLGV; listed as Homo sapiens) [compound 92] |  | Peptide exchange (MHC class I binding score, peptide exchange yield) (HLA-A*02:01): ++++ (>75% = ++++)
18 | 97 (KLFEKSTGL; listed as Homo sapiens) [compound 97] | + (<20% = +) | 
19 | 101 (SLLEVNEASSV; listed as Homo sapiens) [compound 101] | + (<20% = +) | 
20 | 102 (GLYPVTLVGV; listed as Homo sapiens) [compound 102] | + (<20% = +) | 

Row | Substance | Wells positive [%] (CD8+ T cells) | other results
21 | 121 (ALYVQAPTV; listed as Homo sapiens) [compound 121] | + (<20% = +) | 
22 | 157 (ILQDGQFLV; listed as Homo sapiens) [compound 157] | + (<20% = +) | 
23 | 161 (NLLDENVCL; listed as Homo sapiens) [compound 161] |  | Peptide exchange (MHC class I binding score, peptide exchange yield) (HLA-A*02:01): ++++ (>75% = ++++)
24 | 178 (SLVSWQLLL; listed as Homo sapiens) [compound 178] |  | Peptide exchange (MHC class I binding score, peptide exchange yield) (HLA-A*02:01): ++++ (>75% = ++++)
25 | 206 (GLDAFRIFL; listed as Homo sapiens) [compound 206] |  | Peptide exchange (MHC class I binding score, peptide exchange yield) (HLA-A*02:01): ++++ (>75% = ++++)
26 | 233 (SLFESLEYL; listed as Homo sapiens) [compound 233] | + (<20% = +) | 
27 | 234 (VLLNEILEQV; listed as Homo sapiens) [compound 234] |  | Peptide exchange (MHC class I binding score, peptide exchange yield) (HLA-A*02:01): ++++ (>75% = ++++)
28 | 236 (KMSELQTYV; listed as Homo sapiens) [compound 236] | + (<20% = +) | 
29 | 242 (KLQEEIPVL; listed as Homo sapiens) [compound 242] | + (<20% = +) | 
30 | 246 (ALAGIVTNV; listed as Homo sapiens) [compound 246] | + (<20% = +) | 
31 | 254 (ALGDKFLLRV; listed as Homo sapiens) [compound 254] | + (<20% = +) | 
32 | 255 (FLMKNSDLYGA; listed as Homo sapiens) [compound 255] | + (<20% = +) | 
33 | 257 (KLIDHQGLYL; listed as Homo sapiens) [compound 257] | + (<20% = +) | 
34 | 260 (ALNESLVEC; listed as Homo sapiens) [compound 260] | + (<20% = +) | 
35 | 263 (SIIEYLPTL; listed as Homo sapiens) [compound 263] | + (<20% = +) | 
36 | 264 (TLHDQVHLL; listed as Homo sapiens) [compound 264] | + (<20% = +) | 
37 | 267 (YLLDMPLWYL; listed as Homo sapiens) [compound 267] | + (<20% = +) | 
38 | 269 (GLLDCPIFL; listed as Homo sapiens) [compound 269] |  | Peptide exchange (MHC class I binding score, peptide exchange yield) (HLA-A*02:01): ++++ (>75% = ++++)
39 | 287 (KIQEILTQV; listed as Homo sapiens) [compound 287] |  | donors (CD8+ T cells; [1]): +++ (50%-69%- +++); wells (CD8+ T cells; percentage of positive wells, CD8+ T cells of healthy HLA-A*02 donors, three stimulation cycles, multimer staining): + (<20% = +)
40 | 288 (SLYKGLLSV; listed as Homo sapiens) [compound 288] |  | donors (CD8+ T cells; [1]): ++++ (>= 70% = ++++)

— patent US11440947B2, “Peptides and combination of peptides for use in immunotherapy against various tumors” (Immatics Biotechnologies GmbH, priority 2015, dated 2022)
